Data on 6 molecules can be found in PMC11477875, “Ecotoxicity and Mutagenicity Assessment of Novel Antifungal Agents VT-1161 and T-2307” (Molecules, 2024).

Data set [1] relates to Green algae. Conditions: cited from earlier work.
For data set [2], the system named is D. magna. Briefly: Literature D. magna toxicity data used for hazard ranking. Conditions: for Hazard Ranking: GHS, from literature EC50 D. magna 48 h. It is filed as in vivo, Daphnia magna. From the text: (§1) The hazard ranking of antifungal compounds is crucial for understanding their environmental impact and guiding regulatory decisions. This study utilizes data from existing literature to classify the effective concentrations (EC50) of various antifungal compounds according to the Globally Harmonized System of Classification and Labelling of Chemicals (GHS).
(§2) Furthermore, multiple fungicide compounds were classified according to the Globally Harmonized System of Classification and Labeling of Chemicals (GHS) to compare the hazard ranking of substances currently on the market and the two substances of this study.

Data set [3] concerns D. magna. Conditions: cited from earlier work.
In data set [4] the test system is R. subcapitata. Description: Literature R. subcapitata toxicity data used for hazard ranking. In kind it is cell-based, Raphidocelis subcapitata. As to conditions: GHS, from literature EC50 R. subcapitata 72 h.
Text: as §1, §2

Data set [5] deals with R. subcapitata. Conditions: cited from earlier work.
The test system of data set [6] is Green algae. Briefly: Literature green algae toxicity data used for hazard ranking. In kind it is cell-based. Conditions: GHS.
Text: as §1, §2

Data set [7] concerns Daphnia magna. Briefly: Daphnia magna acute immobilization test (this study). It is filed as in vivo. As to conditions: for immobility: 50 mg L^−1; for Hazard Ranking: GHS, from EC50 D. magna 48 h, this study. Here is the method:
The immobilization tests with D. magna were conducted following ISO guidelines using an in-house culture at the Hygiene Department at the UNINA. Organisms under 24 h old were exposed to concentrations of 1.56, 3.12, 6.25, 12.50, 25, and 50 mg L^−1 and to a negative control of freshwater media. Each concentration had four replicates containing five organisms each. The exposure was conducted at a temperature of 20 ± 1 °C and under continuous illumination of approx. 1000 lux. Immobilization was assessed at 24 and 48 h after exposure using a stereomicroscope.
(§3) Data were analyzed with R Studio for Windows (Version 2023.06.0). The effective concentrations causing 50% of the response on the organisms A. fischeri, R. subcapitata, and D. magna were estimated by fitting on dose–response models using the extension package “drc” [49]. For the data analysis of R. subcapitata and A. fischeri tests, the measurements were normalized to the control to estimate an inhibition percentage.

Data set [8] relates to Aliivibrio fischeri. Description: Aliivibrio fischeri luminescence inhibition test (this study). It is filed as cell-based. How it is done:
The luminescence inhibition test was performed on Allivibrio fischeri (strain NRRL-B-11177), purchased from WaterTox STD (ECOtest S.L., Valencia, Spain), and performed according to [46]. The luminescence was measured using a Microtox luminometer Model 500, (AZUR Environmental, Carlsbad, CA, USA) equipped with a cell incubated at a constant temperature of 15 ± 1 °C, and readings were taken after 30 min of exposure at a wavelength of 490 nm. The Osmotic Adjustment Solution was added to the media to adapt the marine bacterium to freshwater. […] Data were analyzed with R Studio for Windows (Version 2023.06.0). The effective concentrations causing 50% of the response on the organisms A. fischeri, R. subcapitata, and D. magna were estimated by fitting on dose–response models using the extension package “drc” [49]. For the data analysis of R. subcapitata and A. fischeri tests, the measurements were normalized to the control to estimate an inhibition percentage.

In data set [9] the test system is Raphidocelis subcapitata. Briefly: Raphidocelis subcapitata growth inhibition test (this study). In kind it is cell-based. As to conditions: for Hazard Ranking: GHS, from EC50 R. subcapitata 72 h, this study. How it is done: The growth inhibition test with R. subcapitata was conducted following ISO guidelines using an in-house culture at the Hygiene Department at the UNINA. Algal cultures were incubated in Erlenmeyer flasks at 20 ± 1 °C on a shaker at 100 rpm and under continuous daylight fluorescent tube illumination of approximately 6300 lux with […]. The initial inoculum concentration was set at 10^4 cells mL^−1, exposed to the concentrations of 1.56, 3.12, 6.25, 12.50, 25, and 50 mg L^−1 and to a negative control of freshwater media. Six replicates were set up for both the control samples and the treatments and were maintained under the same conditions as the algal culture for 72 h.
as §3

For data set [10], the system named is Salmonella typhimurium strain TA100. Description: Salmonella typhimurium mutagenicity assay. It is filed as cell-based. As to conditions: for mutagenicity (result in words): TA100, 1.56 and 50 mg L^−1; for mutagenicity ratio: TA100, both concentrations 1.56 and 50 mg L^−1, mutagenic if ratio 2 or greater. How it is done:
The mutagenicity in Salmonella typhimurium strain TA100 was assessed by observing the potential mutations that would allow the bacteria to grow without needing histidine (his-), following the protocol. For the assay, a kit obtained from ECOTOX LDS (Milan, Italy) was used to perform the test. Two exposure concentrations of 1.56 and 50 mg L^−1 of each compound were used and bromocresol purple was added as a pH indicator. Distilled water served as the negative control and sodium azide as the positive control for TA100 without S9 ([…]).
The plates were incubated at 37 °C for 3 to 5 days and sealed in hermetic plastic bags to avoid contamination. […] Wells that remained purple indicated a negative result (non-mutagenic compound).
For the test organism S. typhimurium, results were expressed as the mutagenicity ratio. This was calculated by dividing the number of revertants (his+) in the treatments by the number of naturally occurring (negative control). The treatments were considered mutagenic if the mutagenicity ratio was 2 or greater.

Data set [11] concerns A. fischeri, R. subcapitata, and D. magna. Briefly: Summary over the species tested (A. fischeri, R. subcapitata, D. magna) and GHS classification. Here is the method:
as §3, §2

≈ marks a conversion by molar mass, not a printed value. Where two headings read alike, the source gives them in different places.

With `OC(Cn1cncn1)(Cn1cncn1)c1ccc(F)cc1F` [Fluconazole], the EC50 is 0.001162 µg/mL (≈ 0.00379 µM) in [1] (96 h ref 30), 55.4 µg/mL (≈ 181 µM) in [1] (96 h ref 37), 0.002766 µg/mL (≈ 0.00903 µM) in data set [3] (48 h ref 30) and 530 µg/mL (≈ 1730 µM) in [3] (48 h ref 37). In [2] (from literature EC50 D. magna, EC50 > 100 mg L^−1), the “GHS hazard category (in words)” value was “not harmful”.

As for `CC(=O)N1CCN(c2ccc(OCC3COC(Cn4ccnc4)(c4ccc(Cl)cc4Cl)O3)cc2)CC1` (centres unmarked) [Ketoconazole], the EC50 is 0.28 µg/mL (≈ 0.527 µM) in data set [1] (72 h ref 38); 4.36 µg/mL (≈ 8.2 µM) in data set [1] (96 h ref 30); 2.39 µg/mL (≈ 4.5 µM) in [3] (48 h ref 30); 6.57 µg/mL (≈ 12.4 µM) in data set [3] (48 h ref 34); 6.57 µg/mL (≈ 12.4 µM) in data set [3] (48 h ref 38); 1.51 µg/mL (≈ 2.84 µM) in [3] (48 h ref 39, listed as ketoconazole). Further, the results for the EC50 in data set [3] (48 h ref 39), in data set [5] (72 h ref 36) and in data set [5] (72 h ref 40) were 1.5 µg/mL (≈ 2.82 µM), 0.28 µg/mL (≈ 0.527 µM) and 0.3 µg/mL (≈ 0.565 µM), respectively. The “Hazard Ranking” value in data set [2] is “*** (Toxic (<1 mg L^−1 ≤ 10 mg L^−1))”; in [4], “**** (Very toxic (≤1 mg L^−1))”; in [6] (from literature EC50 green algae 72 h) it was “**** (Very toxic (≤1 mg L^−1))”; in data set [6] (from literature EC50 green algae 96 h), “*** (Toxic (<1 mg L^−1 ≤ 10 mg L^−1))”.

Consider `N=C(N)c1ccc(OCCCC2CCN(CCCOc3ccc(C(=N)N)cc3)CC2)cc1` [T-2307], for which, in data set [7] (D. magna, 48 h), the “EC50 (effective concentration causing 50% of immobility)” value worked out at 17.93 µg/mL and the immobility is reported as 90%. Also, the “Hazard Ranking” value in data set [7] is on record as “** (Harmful: (<10 mg L^−1 ≤ 100 mg L^−1))”. Moreover, the “EC50 (effective concentration causing 50% luminescence inhibition)” value in data set [8] (A. fischeri, 30 min) came out at 22.58 µg/mL (≈ 51.6 µM). The luminescence inhibition in [8] (A. fischeri, 30 min, 50 mg L^−1) is about 75%. In [9], the “Hazard Ranking” value is recorded as “** (Harmful: (<10 mg L^−1 ≤ 100 mg L^−1))”. For the same molecule, the “EC50 (effective concentration causing 50% growth inhibition)” value in data set [9] (R. subcapitata, 72 h) was found to be 14.34 µg/mL (≈ 32.8 µM). Besides, in data set [9] (R. subcapitata, 72 h, 50 mg L^−1), the growth inhibition entry was “around 82%”. Further, in data set [10], the “mutagenicity (result in words)” value was “non-positive mutagenicity” and the mutagenicity ratio is listed as under 2.

As for `CC(C)(C)C(O)(CCc1ccc(Cl)cc1)Cn1cncn1` (centres unmarked) [Tebuconazole], the “Hazard Ranking” value in data set [2] and in data set [4] was “*** (Toxic (<1 mg L^−1 ≤ 10 mg L^−1))” in each case. For the same molecule, the figures for the EC50 in data set [3] (48 h ref 41), in [3] (48 h ref 42) and in data set [5] (72 h ref 42) were 2.37 µg/mL (≈ 7.7 µM), 6.75 µg/mL (≈ 21.9 µM) and 2.09 µg/mL (≈ 6.79 µM), respectively.

In general, inhibition refers to the percentage by which the read-out fell short of the control. High values mean a strong effect, low ones a weak effect. The molecule `O[C@@](Cn1cnnn1)(c1ccc(F)cc1F)C(F)(F)c1ccc(-c2ccc(OCC(F)(F)F)cc2)cn1` [VT-1161, oteseconazole] gave an immobility in data set [7] (D. magna, 48 h) of 100%. Further, the EC50 in data set [7] (Daphnia magna, read-out: EC50 (effective concentration causing 50% of immobility), D. magna, 48 h) was 20.9 µg/mL (≈ 39.7 µM); in data set [8] (Aliivibrio fischeri, 0.5 h, read-out: EC50 (effective concentration causing 50% luminescence inhibition), A. fischeri, 30 min), 22.4 µg/mL (≈ 42.5 µM); in data set [9] (Raphidocelis subcapitata, read-out: EC50 (effective concentration causing 50% growth inhibition), R. subcapitata, 72 h), 27.9 µg/mL (≈ 52.9 µM); in data set [11] (A. fischeri, R. subcapitata, D. magna, read-out: EC50 values, range over the species tested), 20.9 to 27.9 µg/mL (≈ 39.7 to 52.9 µM). Further, the “Hazard Ranking” value in data set [7] is “** (Harmful: (<10 mg L^−1 ≤ 100 mg L^−1))”; in data set [8] (GHS, from EC50 A. fischeri 30 min, this study) it was “** (Harmful: (<10 mg L^−1 ≤ 100 mg L^−1))”; in data set [9], “** (Harmful: (<10 mg L^−1 ≤ 100 mg L^−1))”. For the same molecule, the inhibition at 50 µg/mL in [8] (Aliivibrio fischeri, 0.5 h, A. fischeri, 30 min, 50 mg L^−1) is about 63%; in data set [9] (Raphidocelis subcapitata, R. subcapitata, 72 h, 50 mg L^−1) it was about 65%. Besides, in [10], the “mutagenicity (result in words)” value is listed as “non-positive mutagenicity”. Besides, the mutagenicity ratio in [10] is under 2. In addition, the “GHS classification (in words)” value in data set [11] (EC50 values between 10 mg L^−1 and 100 mg L^−1) was “harmful”.

Turning to `CC(C)(C)C(=O)C(Oc1ccc(Cl)cc1)n1ccnc1` (centres unmarked) [climbazole], the EC50 in data set [3] (exposure time not printed ref 30) is 15.99 µg/mL (≈ 54.6 µM).
